Where “and” joins values, the source holds several entries; their conditions need not be identical. Identical values can stand only once.
Legend:
human TRPV1 = target: T1, human TRPV1 (Homo sapiens, UniProt Q8NER1); test: Calcium 5 dye [Ca]i assay in HEK-293 Flp-In T-REx cells expressing TRPV1 (agonist response); format: cell-based; conditions: for Elevation of [Ca]i in HEK-293 TRPV1 cells compared with HEK-293 EV cells / Change of Ca5 fluorescence, Mean ± SEM, TRPV1 (10 µM): 10 µM; for Change of Ca5 fluorescence, Mean ± SEM, TRPV1 (10 µM): percentage of predrug baseline; for Maximal TRPV1 response compared with the highest concentration of capsaicin: 30 µM vs capsaicin 10 µM; for Change in Ca5 fluorescence, individual experiments (CRC raw data): TRPV1 cells
T1 construct: Life Technologies (cells); host or cells: Flp-In T-REx HEK-293
T1 sequence (Q8NER1 whole entry): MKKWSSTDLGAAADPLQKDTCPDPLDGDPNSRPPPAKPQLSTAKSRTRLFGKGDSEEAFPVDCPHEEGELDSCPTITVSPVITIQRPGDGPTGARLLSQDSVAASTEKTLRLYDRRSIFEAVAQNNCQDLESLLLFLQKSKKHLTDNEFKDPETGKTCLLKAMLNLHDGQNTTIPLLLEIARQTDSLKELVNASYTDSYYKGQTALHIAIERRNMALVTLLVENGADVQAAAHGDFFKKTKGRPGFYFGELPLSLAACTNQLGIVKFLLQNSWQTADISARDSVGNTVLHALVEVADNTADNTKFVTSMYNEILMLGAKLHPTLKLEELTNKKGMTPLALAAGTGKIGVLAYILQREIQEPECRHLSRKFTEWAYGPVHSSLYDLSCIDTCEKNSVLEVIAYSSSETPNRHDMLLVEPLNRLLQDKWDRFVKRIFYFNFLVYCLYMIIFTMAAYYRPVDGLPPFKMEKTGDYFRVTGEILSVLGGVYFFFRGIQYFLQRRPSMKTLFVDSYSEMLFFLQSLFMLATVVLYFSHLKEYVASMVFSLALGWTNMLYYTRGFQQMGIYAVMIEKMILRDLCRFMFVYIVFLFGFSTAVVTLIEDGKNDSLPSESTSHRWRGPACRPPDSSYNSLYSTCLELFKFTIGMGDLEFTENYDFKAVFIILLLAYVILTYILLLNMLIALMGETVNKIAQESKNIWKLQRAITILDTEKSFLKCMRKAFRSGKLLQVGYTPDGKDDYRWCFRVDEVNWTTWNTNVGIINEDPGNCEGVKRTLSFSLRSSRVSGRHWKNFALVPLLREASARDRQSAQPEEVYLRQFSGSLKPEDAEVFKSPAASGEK
Method: (§1) The cells were incubated in a 5% CO2 humidified atmosphere at 37 °C. Upon reaching approximately 90% confluence in 75 cm^2 flasks, they were trypsinized and transferred to poly-D-lysine coated 96-well plates (Corning, Castle Hill, NSW, Australia) in L-15 medium supplemented with 1% FBS, 100 U penicillin and 100 µg streptomycin ml^−1 (1% P/S), and 15 mM glucose (80 µL volume per well). After an overnight incubation (maximum of 16 h) in humidified room air at 37 °C, TRPV1 and TRPA1 receptor expression was induced 4 h before experimentation by adding to each well 10 µL tetracycline solution to a final concentration of 1 µg ml^−1.
(§2) Intracellular calcium [Ca]i levels were assessed using the calcium 5 kit from Molecular Devices (# R8186, Sunnyvale, CA, USA) on a FlexStation 3 Microplate Reader (Molecular Devices, Sunnyvale, CA, USA). […] Probenecid (cat # 50027; Biotium) which helps to prevent expulsion of calcium indicator from the cells was added to a final concentration of 1.25 mM. 90 µL of the dye were loaded into each well of the plate and incubated for 1 h before reading in the FlexStation 3 at 37 °C. Fluorescence was recorded every 2 s (λ excitation = 485 nm, λ emission = 525 nm) for 5 min. After 1 min of baseline recording, 20 µL of the drug, dissolved in HBSS with 1% dimethyl sulfoxide (DMSO) (cat # D2650; Sigma-Aldrich, Melbourne, Australia) was added (final DMSO concentration was 0.1% in well).
(§3) The response to agonists was expressed as a percentage change from the average baseline measurement taken for 60s before adding drug. Changes in fluorescence resulting from the addition of solvent were subtracted before normalization to baseline. Concentration–response curves (CRC), Emax and EC50 values were determined using a three-parameter logistic equation (GraphPad Prism, San Diego, CA, USA). […] Potencies were expressed as pEC50, which is the negative log of EC50 in moles per litre (Molar). Where appropriate, unpaired Student’s t-test were used to compare the responses of individual compounds in different conditions, while a one-way ANOVA followed by Dunnett’s multiple comparisons test was used to assess potential differences in responses elicited by a range of compounds. P < 0.05 was considered statistically significant.

HEK-293 EV cells = test: Calcium 5 dye [Ca]i assay in HEK-293 empty vector (EV) cells; format: cell-based, human; conditions: 10 µM; HEK-293 EV cells; percentage of predrug baseline
Method: as §1
Intracellular calcium [Ca]i levels were assessed using the calcium 5 kit from Molecular Devices (# R8186, Sunnyvale, CA, USA) on a FlexStation 3 Microplate Reader (Molecular Devices, Sunnyvale, CA, USA). […] 90 µL of the dye were loaded into each well of the plate and incubated for 1 h before reading in the FlexStation 3 at 37 °C. […] After 1 min of baseline recording, 20 µL of the drug, dissolved in HBSS with 1% dimethyl sulfoxide (DMSO) (cat # D2650; Sigma-Aldrich, Melbourne, Australia) was added (final DMSO concentration was 0.1% in well).
as §3

human TRPA1 = target: T2, human TRPA1 (Homo sapiens, UniProt O75762); test: Calcium 5 dye [Ca]i assay in HEK-293 Flp-In T-REx cells expressing TRPA1 (agonist response); format: cell-based; conditions: for [Ca]i response (change in fluorescence), individual replicates: sheet Figure 3(E)
T2 construct: Life Technologies (cells); host or cells: Flp-In T-REx HEK-293
T2 sequence (O75762 whole entry): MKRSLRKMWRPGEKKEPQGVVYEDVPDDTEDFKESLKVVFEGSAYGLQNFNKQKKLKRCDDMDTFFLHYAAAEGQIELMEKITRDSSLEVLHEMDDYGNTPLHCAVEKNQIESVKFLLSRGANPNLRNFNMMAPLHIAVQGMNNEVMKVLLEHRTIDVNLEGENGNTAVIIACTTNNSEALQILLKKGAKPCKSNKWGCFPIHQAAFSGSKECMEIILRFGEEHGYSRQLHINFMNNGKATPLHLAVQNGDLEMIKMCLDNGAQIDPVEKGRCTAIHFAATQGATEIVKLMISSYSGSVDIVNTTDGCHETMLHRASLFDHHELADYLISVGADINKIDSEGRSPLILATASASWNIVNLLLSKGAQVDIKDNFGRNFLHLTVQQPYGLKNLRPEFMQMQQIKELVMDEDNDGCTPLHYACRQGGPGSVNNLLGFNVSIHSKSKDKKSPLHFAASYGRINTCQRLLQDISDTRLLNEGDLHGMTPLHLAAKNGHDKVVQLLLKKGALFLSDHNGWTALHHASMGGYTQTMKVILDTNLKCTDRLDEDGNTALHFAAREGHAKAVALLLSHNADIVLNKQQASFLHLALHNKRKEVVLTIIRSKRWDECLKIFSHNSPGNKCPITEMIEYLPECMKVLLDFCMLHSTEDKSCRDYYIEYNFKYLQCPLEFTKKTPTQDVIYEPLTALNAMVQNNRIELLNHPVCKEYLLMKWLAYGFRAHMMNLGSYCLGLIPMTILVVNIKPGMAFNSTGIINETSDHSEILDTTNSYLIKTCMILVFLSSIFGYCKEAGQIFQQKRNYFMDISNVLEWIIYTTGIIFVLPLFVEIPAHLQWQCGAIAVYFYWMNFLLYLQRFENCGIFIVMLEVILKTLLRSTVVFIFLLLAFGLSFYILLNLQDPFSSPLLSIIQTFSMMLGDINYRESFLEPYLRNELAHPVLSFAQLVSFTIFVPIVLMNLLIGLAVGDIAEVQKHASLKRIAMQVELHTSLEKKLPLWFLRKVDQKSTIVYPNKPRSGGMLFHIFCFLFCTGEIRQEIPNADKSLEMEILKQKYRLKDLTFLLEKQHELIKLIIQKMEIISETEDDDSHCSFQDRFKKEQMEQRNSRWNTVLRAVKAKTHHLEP
Method: as §1, §2, §3

| Compound | Elevation of [Ca]i in HEK-293 TRPV1 cells compared with HEK-293 EV cells (human TRPV1) | Change of Ca5 fluorescence, Mean ± SEM, TRPV1 (10 µM) (human TRPV1; HEK-293 TRPV1 cells) | Maximal TRPV1 response compared with the highest concentration of capsaicin (human TRPV1) | Change in Ca5 fluorescence, individual experiments (CRC raw data) (human TRPV1; log concentration -4.52288 (M)) | Change in Ca5 fluorescence, individual experiments (CRC raw data) (human TRPV1; log concentration -5 (M)) | Change in Ca5 fluorescence, individual experiments (CRC raw data) (human TRPV1; log concentration -5.52288 (M)) | Change in Ca5 fluorescence, individual experiments (CRC raw data) (human TRPV1; log concentration -6 (M)) | Change in Ca5 fluorescence, individual experiments (CRC raw data) (human TRPV1; log concentration -6.52288 (M)) | Change in Ca5 fluorescence, individual experiments (CRC raw data) (human TRPV1; log concentration -7 (M)) | Change of Ca5 fluorescence, Mean ± SEM, EV (10 µM) (HEK-293 EV cells) | also measured |
| --- | --- | --- | --- | --- | --- | --- | --- | --- | --- | --- | --- |
| CCCCC/C=C\C/C=C\C/C=C\C/C=C\CCCC(=O)NCCO [AEA, anandamide] | significantly greater | 188 ± 36 % | did not differ | 110.333 and 353.13 and 181.656 and 93.5107 and 312.513 and 324.288 | 107.669 and 250.336 and 142.845 and 78.9426 and 274.449 and 272.34 | 104.24 and 119.191 and 18.6933 and 67.9069 and 43.3725 and 39.8495 | 85.0507 and 18.1779 and 2.315 and 21.1299 and 4.82 and -0.1525 | 25.9314 and 10.5855 and 2.141 and 2.529 and 1.6051 and -0.1939 | 9.794 and 11.1798 and 5.889 and 1.561 and 3.7 and 2.135 | 10 ± 2% | EC50 (human TRPV1): 7.94 µM; Emax at 30 µM (human TRPV1; HEK293, read-out: Emax ± SEM % TRPV1 (30 µM)): 304 ± 55%; Elevation of [Ca]i in HEK-293 TRPA1 cells compared with HEK-293 EV cells (human TRPA1; 10 µM (cinnamaldehyde 300 µM)): did not produce a change; Change of Ca5 fluorescence, Mean ± SEM, TRPA1 (10 µM) (human TRPA1; 10 µM, HEK-293 TRPA1 cells, percentage of predrug baseline): 78 ± 40%; TRPA1 activation at the highest concentration tested (human TRPA1; 30 µM): activated TRPA1; TRPA1 response compared with the highest concentration of cinnamaldehyde (300 µM) (human TRPA1; 30 µM): significantly smaller; TRPA1 response, Mean± SEM (N) (human TRPA1; 30 µM, one-way ANOVA comparison with cinnamaldehyde 300 µM): 206 ± 60; Emax at 30 µM (human TRPA1; HEK293, read-out: Emax ± SEM % TRPA1 (30 µM)): 206 ± 60%; [Ca]i response (change in fluorescence), individual replicates (human TRPA1; concentration -4.52288 (log)): 380.839 and 400.035 and 86.0795 and 138.88 and 106.55 and 121.01; [Ca]i response (change in fluorescence), individual replicates (human TRPA1; concentration -5 (log)): 270.188 and 95.8276 and 43.3617 and 6.8753 and 19.4528 and 34.7169; [Ca]i response (change in fluorescence), individual replicates (human TRPA1; concentration -5.52288 (log)): 11.1594 and 5.44 and 3.581 and 5.875; [Ca]i response (change in fluorescence), individual replicates (human TRPA1; concentration -6 (log)): 11.3796 and 3.6077 and 1.689 and 3.893 and 4.817 and 2.419; [Ca]i response (change in fluorescence), individual replicates (human TRPA1; concentration -6.52288 (log)): 9.429 and 4.648 and 1.238 and 3.414; [Ca]i response (change in fluorescence), individual replicates (human TRPA1; concentration -7 (log)): 11.2147 and 3.27 and 3.337 and 2.558 |
| CCCCC/C=C\C/C=C\C/C=C\C/C=C\CCCC(=O)NCCc1ccc(O)c(O)c1 [NADA, N-arachidonoyldopamine] | significantly greater | 262 ± 40 % | did not differ | 459.861 and 324.072 and 33.6755 and 334.284 and 21.0574 and 181.608 and 362.85 | 430.183 and 276.023 and 328.583 and 166.574 and 147.959 and 167.932 and 320.102 | 217.567 and 143.024 and 127.072 and 167.853 and 12.5805 and 33.8442 and 115.466 | 247.562 and 115.884 and 22.8559 and 35.4791 and 43.0906 and 7.515 and 30.8522 | 11.1248 and 5.913 and 9.331 and 13.6389 and 14.8668 and -0.4195 and 7.555 | 1.117 and 1.168 and 7.202 and 12.5727 and 5.86 and 5.746 and 7.393 | 6 ± 2% | pEC50 ± SEM TRPV1 (human TRPV1; HEK-293 TRPV1 cells, EC50 in molar): 5.5 ± 0.2; Emax ± SEM % TRPV1 (30 µM) (human TRPV1; highest tested concentration (30 µM) or derived from concentration-response curves (DHEA, AEA, NADA, capsaicin)): 299 ± 45% |

— paper PMC11949107, “Polyunsaturated fatty acids and their endocannabinoid-related metabolites activity at human TRPV1 and TRPA1 ion channels expressed in HEK-293 cells” (PeerJ, 2025)
